How the values were obtained:
production of PGF2α = test: Inhibition of PGF2α production in IL-1β-stimulated A549 cells (EIA); assay type: cell-based; details: Homo sapiens, IL-1β 1 ng/ml, 18 hours; for inhibition at 10 µM: compound 10 μM, na = not active at the experimental concentration; for IC50: negative logarithm of IC50, read-out: pIC50 PGF2α (converted)
Excerpt: (§1) This test allows evaluation of the inhibitory capability on the production of the PGE2 prostaglandins and the selectivity relative to the production of the PGF2α prostaglandins.
(§2) The cell line A549, human pulmonary adenocarcinoma, was used, which is particularly sensitive to stimulation with pro-inflammatory cyokines, for instance IL-1β, and, in response to this stimulation, is particularly active in the production and release of two prostanoids: PGE2 and PGF2α (Thoren S. Jakobsson P-J, 2000).
(§3) The cells were stimulated with IL-1β, (1 ng/ml) and simultaneously treated with the test compound for 18 hours in an appropriate culture medium (DMEM—Dulbecco's Modified Eagle's Medium) supplemented with 5% foetal calf serum and L-glutamine (4 mM final) in an incubator at 37° C. and at a CO2 concentration of 5%.
(§4) After the incubation, the amount of PGE2 and PGF2α produced and released into the supernatant were assayed using an EIA kit (produced and sold by Cayman Chemicals, Ann Arbor, Mich., USA).
(§5) The comparative compounds used were indomethacin (Sigma-Aldrich), a non-steroidal anti-inflammatory drug that inhibits in equal measure both PGE2 and PGF2α, and also the compounds of formula (I) in which R1=CH3CH2, R2=OH, R3=R4=R5=R6=X=Y=H (comparative compound A) and R1=CH3CH2, R2=SCH3, R3=R4=R5=R6=X=Y=H (comparative compound B). […]

production of PGE2 = test: Inhibition of PGE2 production in IL-1β-stimulated A549 cells (EIA); assay type: cell-based; details: Homo sapiens, IL-1β 1 ng/ml, 18 hours; for inhibition at 10 µM: compound 10 μM, na = not active at the experimental concentration; for IC50: negative logarithm of IC50, read-out: pIC50 PGE2 (converted)
Excerpt: as §1, §2, §3, §4, §5

production of PGI2 = test: Test on human primary endothelial cells (HUVEC): inhibition of PGI2 production; assay type: cell-based; details: for Inhibition (%) of PGI2: compound at LogM −5, relative to control
Protocol: This test allows evaluation of the capability of the compounds of the invention to inhibit the production of PGI2.
The absence of inhibitory activity on this prostanoid can ensure maintenance of the vasoprotective action of the PGI2 prostanoids and provide useful pharmacological information regarding the absence of adverse side effects on the endothelium.
The action of the test compounds is evaluated in HUVEC cells under basal conditions and conditions of stimulation (J. Immunol. 1989, Jun. 1; 142(11): 3993-9).
The results are given as a percentage of inhibition relative to the control enzymatic activity.
Indomethacin is used as reference compound.

melting point	IC50 (production of PGF2α)	IC50 (production of PGE2)	IC50 (production of PGI2; Homo sapiens, PGI2, printed as a negative logarithmic figure, read-out: IC50 (comparison compound) (converted))	SMILES	inhibition at 10 µM (production of PGF2α)	inhibition at 10 µM (production of PGE2)	Inhibition (%) of PGI2 (production of PGI2)
206 °C				Cn1c2ccccc2c2cc(NC(=O)c3ccccc3Cl)ccc21 [Compound 1, 2-chloro-N-(9-methyl-9H-carbazol-3-yl)benzamide]	27%	59%	
195 °C	10000 nM	794 nM		CC(C)n1c2ccccc2c2cc(NC(=O)c3ccccc3Cl)ccc21 [Compound 2, 2-chloro-N-[9-(1-methylethyl)-9H-carbazol-3-yl]benzamide]	66%	90%	31%
	> 100000 nM	1260 nM		O=C(Nc1ccc2c(c1)c1ccccc1n2Cc1ccccc1)c1ccccc1Cl [Compound 3, 2-chloro-N-[9-(phenylmethyl)-9H-carbazol-3-yl]benzamide]	7%	86%	
206 to 207 °C	100000 nM	631 nM		CCn1c2ccccc2c2cc(NC(=O)c3ccccc3C(F)(F)F)ccc21 [Compound 4, N-(9-ethyl-9H-carbazol-3-yl)-2-(trifluoromethyl)benzamide]	0%	67%	21%
192 to 193 °C				CCn1c2ccccc2c2cc(NC(=O)c3c(C)cccc3C)ccc21 [Compound 5, N-(9-ethyl-9H-carbazol-3-yl)-2,6-dimethylbenzamide]	60%	93%	
				CCn1c2ccccc2c2cc(NC(=O)c3ccccc3O)ccc21 [Compound A, N-(9-ethyl-9H-carbazol-3-yl)-2-hydroxybenzamide, reference compound]	84%	88%	
	2.51 nM	5.01 nM	10 nM	COc1ccc2c(c1)c(CC(=O)O)c(C)n2C(=O)c1ccc(Cl)cc1 [indomethacin, reference compound]	100%	100%	
